# Like-named read-outs stand apart in the source and are kept apart here.
# What was measured:
# A. baumannii = experiment: Bacterial killing kinetics; assay type: cell-based, Acinetobacter baumannii; settings: within 8 h, at respective MBC
# Procedure: Mid-log-phase A. baumannii (5 × 10^5 CFU/mL) bacterial cells were treated with the test candidates at appropriate bactericidal concentrations, followed by incubation at 37°C. The treated bacterial cells were plated in MHA to determine the bacterial killing rate as a function of time ([52]).
# MDR A. baumannii 1033 [1] = experiment: Checkerboard microdilution assay (FICI); assay type: cell-based, Acinetobacter baumannii
# Procedure: (§1) The FICI was measured using a standard checkerboard microdilution assay ([57]). Two-fold dilutions of antibiotics were made across the x axis, and two-fold peptide dilutions were made across the y axis. Next, bacteria were added at 5 × 10^5 CFU/well (A. baumannii), followed by incubation at 37 ± 2°C for 16 to 20 h. FIC indices were calculated according to the following equations: FICI = FIC1 + FIC2; FIC1 = (MIC12 combined)/MIC1; FIC2 = (MIC12 combined)/MIC2. The combined efficacy was estimated as follows: FICI ≤ 0.5, synergistic; 0.5 to 1, additive; 1 to 2, indifferent; ≥2, antagonistic.
# MDR A. baumannii 2998 = experiment: Checkerboard microdilution assay (FICI); assay type: cell-based, Acinetobacter baumannii
# Procedure: as §1
# MDR A. baumannii 3618 = experiment: Checkerboard microdilution assay (FICI); assay type: cell-based, Acinetobacter baumannii
# Procedure: as §1
# MDR A. baumannii 2088 [2] = experiment: Checkerboard microdilution assay (FICI); assay type: cell-based, Acinetobacter baumannii
# Procedure: as §1
# MDR A. baumannii 2997 = experiment: Checkerboard microdilution assay (FICI); assay type: cell-based, Acinetobacter baumannii
# Procedure: as §1
# MDR A. baumannii 1607 = experiment: microbe, parasite or virus in culture; assay type: cell-based, Acinetobacter baumannii; settings: for MBC: read-out: MBC
# Procedure: (§2) The antimicrobial assay was performed according to a modified National Committee for Clinical Laboratory Standards (NCCLS) protocol ([41], [42]). Briefly, 5 × 10^5 CFU/mL bacterial cells were treated with various peptide concentrations and incubated at 37 ± 2°C for 16 to 20 h. The lowest concentration with clear wells was recorded as the MIC for each test molecule. The clear wells were further plated in Mueller-Hinton agar (MHA) plates, followed by incubation overnight at 37 ± 2°C. After plating, the lowest concentration at which no growth was observed was recorded as the MBC. For the serum sensitivity assay, the antimicrobial activity of the peptides was tested in medium containing 50% human serum ([43], [44]).
# MDR A. baumannii 1033 [3] = experiment: microbe, parasite or virus in culture; assay type: cell-based, Acinetobacter baumannii; settings: for MBC: read-out: MBC; for MIC: read-out: MIC
# Procedure: as §2
# MDR A. baumannii 2088 [4] = experiment: microbe, parasite or virus in culture; assay type: cell-based, Acinetobacter baumannii; settings: for MBC: read-out: MBC; for MIC: read-out: MIC
# Procedure: as §2
# MDR A. baumannii 1019 = experiment: microbe, parasite or virus in culture; assay type: cell-based, Acinetobacter baumannii
# Procedure: as §2
# [5] = test system: NDM-1 Klebsiella pneumoniae; experiment: microbe, parasite or virus in culture; assay type: cell-based
# Procedure: as §2
# Pseudomonas aeruginosa = experiment: microbe, parasite or virus in culture; assay type: cell-based; settings: for MBC: read-out: MBC; for MIC: read-out: MIC
# Procedure: as §2
# Escherichia coli = experiment: microbe, parasite or virus in culture; assay type: cell-based; settings: Escherichia coli
# Procedure: as §2
# Enterobacter aerogenes = experiment: microbe, parasite or virus in culture; assay type: cell-based; settings: Klebsiella aerogenes; MHB medium
# Procedure: as §2
# Acinetobacter baumannii = experiment: microbe, parasite or virus in culture; assay type: cell-based; settings: for MBC / MIC: Acinetobacter baumannii; for MBC: read-out: MBC; for MIC: read-out: MIC
# Procedure: as §2, with “[44]). The antimicrobial assay was performed in the presence of physiological ions and glucose. The test media were supplemented with MgCl2 (1 mM), CaCl2 (2 mM), NaCl (150 mM), KCl (4.5 mM), NH4Cl (6 μM) ([45], [46]), or glucose (0.2%) ([47]), followed by routine antimicrobial assay as described previously. For the pH sensitivity assay, the antimicrobial assay was performed in media adjusted to pH values ranging from 4 to 12. To estimate the effects of temperature on antimicrobial activity, the peptide was incubated for 1 h at temperatures ranging from 40 to 100°C ([48]), followed by the antimicrobial assay as described above.” for “[44]).”
# P. aeruginosae = experiment: microbe, parasite or virus in culture; assay type: cell-based, Pseudomonas aeruginosa
# NDM1 K. pneumoniae = experiment: microbe, parasite or virus in culture; assay type: cell-based, Klebsiella pneumoniae
# [6] = Acinetobacter baumannii, read-out: Single drug treatment MIC
# [7] = MIC of each agent in combination, TP4-3 and M
# [8] = Acinetobacter baumannii, MHB medium
# [9] = HS, MH medium containing 50% human serum
# [10] = HS, 50% human serum containing MHB medium
# [11] = Klebsiella pneumoniae, MHB medium
# [12] = Pseudomonas aeruginosa, MHB medium
# [13] = 1 h, agent pre-exposed to 40°C for 1 h
# [14] = 1 h, agent pre-exposed to 60°C for 1 h
# [15] = 1 h, agent pre-exposed to 80°C for 1 h
# [16] = preincubation in 50% human serum 2 h
# [17] = preincubation in 50% human serum 6 h
# [18] = preincubation in 50% human serum 12 h
# [19] = preincubation in 50% human serum 24 h
structure (smiles),measurement,setting,value
C[C@@H](O)[C@H]1C(=O)N2C(C(=O)O)=C(S[C@@H]3CN[C@H](C(=O)N(C)C)C3)[C@H](C)[C@H]12 [Meropenem],reduction of the bacterial population,A. baumannii,approximately half
same,MIC,MDR A. baumannii 1033 [1]; [6],200 µM
same,TP4-3 and meropenem combined MIC,MDR A. baumannii 1033 [1]; [7],50 µM
same,MIC,MDR A. baumannii 2998; [6],400 µM
same,TP4-3 and meropenem combined MIC,MDR A. baumannii 2998; [7],50 µM
same,MIC,MDR A. baumannii 3618; [6],200 µM
same,TP4-3 and meropenem combined MIC,MDR A. baumannii 3618; [7],25 µM
same,MIC,MDR A. baumannii 2088 [2]; [6],400 µM
same,TP4-3 and meropenem combined MIC,MDR A. baumannii 2088 [2]; [7],100 µM
same,MIC,MDR A. baumannii 2997; [6],200 µM
same,TP4-3 and meropenem combined MIC,MDR A. baumannii 2997; [7],12.5 µM
same,MIC,MDR A. baumannii 1607; [8],> 25 µM
same,MBC,MDR A. baumannii 1607; [8],> 25 µM
same,MIC,MDR A. baumannii 1607; [9],>25 µM
same,MBC,MDR A. baumannii 1607; [9],>25 µM
same,MBC,MDR A. baumannii 1033 [3]; [8],> 25 µM
same,MIC,MDR A. baumannii 1033 [3]; [8],> 25 µM
same,MBC,MDR A. baumannii 1033 [3]; [9],>25 µM
same,MIC,MDR A. baumannii 1033 [3]; [9],>25 µM
same,MBC,MDR A. baumannii 2088 [4]; [8],> 25 µM
same,MIC,MDR A. baumannii 2088 [4]; [8],> 25 µM
same,MBC,MDR A. baumannii 2088 [4]; [9],>25 µM
same,MIC,MDR A. baumannii 2088 [4]; [9],>25 µM
same,MBC,MDR A. baumannii 1019; [8],> 25 µM
same,MIC,MDR A. baumannii 1019; [8],> 25 µM
same,MBC,MDR A. baumannii 1019; [9],>25 µM
same,MIC,MDR A. baumannii 1019; [9],>25 µM
same,MBC,[5]; [10],>25 µM
same,MIC,[5]; [10],>25 µM
same,MBC,[5]; [11],> 25 µM
same,MIC,[5]; [11],> 25 µM
same,MBC,"Pseudomonas aeruginosa; Pseudomonas aeruginosa, HS, 50% human serum containing MHB medium",3.13 µM
same,MBC,Pseudomonas aeruginosa; [12],6.25 µM
same,MIC,Pseudomonas aeruginosa; [12],3.13 µM
same,MIC,Pseudomonas aeruginosa,1.56 µM
same,MBC,Escherichia coli; [10],0.78 µM
same,MIC,Escherichia coli; [10],0.78 µM
same,MBC,Escherichia coli; MHB medium,0.39 µM
same,MIC,Escherichia coli; MHB medium,0.39 µM
same,MBC,Enterobacter aerogenes,0.39 µM
same,MIC,Enterobacter aerogenes,0.39 µM
same,reduction of activity,Acinetobacter baumannii; 24 h pre-incubation in 50% human serum,2 fold
same,MBC,Acinetobacter baumannii; [13],6.25 µM
same,MIC,Acinetobacter baumannii; [13],6.25 µM
same,MBC,Acinetobacter baumannii; [14],6.25 µM
same,MIC,Acinetobacter baumannii; [14],6.25 µM
same,MBC,Acinetobacter baumannii; [15],12.5 µM
same,MIC,Acinetobacter baumannii; [15],12.5 µM
same,MBC,"Acinetobacter baumannii; 1 h, agent pre-exposed to 100°C for 1 h",> 25 µM
same,MBC,Acinetobacter baumannii; [16],6.25 to 12.5 µM
same,MIC,Acinetobacter baumannii; [16],6.25 µM
same,MBC,Acinetobacter baumannii; [17],6.25 to 12.5 µM
same,MIC,Acinetobacter baumannii; [17],6.25 µM
same,MBC,Acinetobacter baumannii; [18],12.5 µM
same,MIC,Acinetobacter baumannii; [18],6.25 µM
same,MBC,Acinetobacter baumannii; [19],25 µM
same,MIC,Acinetobacter baumannii; [19],12.5 µM
same,MIC,Acinetobacter baumannii; agent pre-exposed to 100°C for 1 h,> 25 µM
same,TP4-3 and meropenem combined MIC,P. aeruginosae; [7],0.78 µM
same,MIC,"P. aeruginosae; Pseudomonas aeruginosa, read-out: Single drug treatment MIC",0.39 µM
same,MIC,"NDM1 K. pneumoniae; Klebsiella pneumoniae, read-out: Single drug treatment MIC",400 µM
same,TP4-3 and meropenem combined MIC,NDM1 K. pneumoniae; [7],200 µM

# — paper PMC10101059, “Rational Design of Stapled Antimicrobial Peptides to Enhance Stability and In Vivo Potency against Polymicrobial Sepsis” (Microbiology Spectrum, 2023)
